Experimental data from patent US20030220310A1, “Epoxy-steroidal aldosterone antagonist and calcium channel blocker combination therapy for treatment of congestive heart failure” (priority 2003, published 2003).

Test: X-ray powder diffraction, Form H content of dried solids
Format: physicochemical
Details: methyl ethyl ketone solvate dried at 100° C.
Procedure: For the Siemens D500 powder diffractometer, the raw data was measured for 2q values from 2 to 50, with steps of 0.020 and step periods of two seconds. For the Inel Multipurpose Diffractometer, samples were placed in an aluminum sample holder and raw data was collected for 30 minutes at all two theta values simultaneously.
The weight percent of the diepoxide or 11,12-epoxide in each sample is given in Tables X-6A and X-6B, respectively. A micro-flea magnetic stirrer was added to each scintillation vial along with 1 mL of methyl ethyl ketone. The vials were loosely capped and the solid dissolved by heating to reflux on a hot plate with magnetic stirring. Once the solids were dissolved, the solutions were allowed to cool to room temperature on the hot plate. Magnetic stirring was maintained during the cooling period. After the solutions reached room temperature, the solids were collected by vacuum filtration and immediately analyzed by X-ray powder diffraction (XPRD). The solids were then placed in a 100° C. oven and dried for one hour at ambient pressure. The dried solids were analyzed by XPRD for Form H content by monitoring the area of the Form H diffraction peak at about 12.1 degrees two theta. All XPRD diffraction patterns were recorded using an Inel Multipurpose Diffractometer.
The area for the Form H diffraction peak at about 12.1 degrees two theta and the estimated Form H content for each sample are given in Table X-6C below.

[1] = 0% 11,12-epoxide in starting eplerenone mixture
[2] = 5% 11,12-epoxide in starting eplerenone mixture

Q: For `COC(=O)[C@@H]1CC2=CC(=O)CC[C@]2(C)C23O[C@@H]2C[C@@]2(C)[C@@H](CC[C@@]24CCC(=O)O4)[C@H]13` (stereo partly drawn) [eplerenone, Pregn-4-ene-7,21-dicarboxylic acid, 9,11-epoxy-17-hydroxy-3-oxo-,γ-lactone, methyl ester, (7α,11α,17β)-], which “Estimated Weight Percent of Form H” value [1] is on record?
A: The value was “None Detected”.

Q: And the “Form H Peak Area 12° Two Theta Peak” value [1]?
A: The value was “None Detected”.

Q: And the “Estimated Weight Percent of Form H” value (1% 11,12-epoxide in starting eplerenone mixture)?
A: The value was “None Detected”.

Q: What about the “Estimated Weight Percent of Form H” value [2] of the same compound?
A: The value was “None Detected”.

Q: And the “Form H Peak Area 12° Two Theta Peak” value [2]?
A: The value was “None Detected”.

Q: What about the “Estimated Weight Percent of Form H” value (5% diepoxide in starting eplerenone mixture) of the same compound?
A: The value was 30%.
